The source of these data is patent US20020055639A1, “Pyrazole derivatives as herbicides” (priority 1997, published 2002).

The test system of the first assay is Avena. Nature of the assay: Pre-emergence herbicidal action (Example B1). Type of assay: in vivo. Details: key: 1=total damage; 9=no action; Ratings of from 1 to 4 (especially from 1 to 3) indicate good to very good herbicidal action. The settings on record: 2000 g a.i./ha, sprayed immediately after sowing, evaluated after 3 weeks, scale of nine ratings. On the procedure:
(§1) Monocotyledonous and dicotyledonous test plants are sown in standard soil in plastics pots. Immediately after sowing, the test compounds, each in the form of an aqueous suspension or emulsion prepared from a 25% emulsifiable concentrate (Example F1, c) in WO 97/34485, pages 9 and 10), are applied by spraying at a rate of application of 2000 g of active ingredient/ha (500 liters water/ha). The test plants are then grown in a greenhouse under optimum conditions. After 3 weeks' test duration, the test is evaluated in accordance with a scale of nine ratings (1=total damage, 9=no action). Ratings of from 1 to 4 (especially from 1 to 3) indicate good to very good herbicidal action.
(§2) Test plants: Avena, Setaria, Sinapis, Stellaria
Take `Cn1nc(-c2c(F)cc(Cl)c(=O)n2C)c(Cl)c1C(F)(F)F` [Example 9.002]: the “Pre-emergence action: Avena (rating)” value worked out at 1.
On the same count and under the same terms, to `C#CCn1c(-c2nn(C)c(C(F)(F)F)c2Br)c(F)cc(Cl)c1=O` [Example 10.100] belongs 1.
For the compound `C#CCn1c(-c2nn(C)c(S(C)(=O)=O)c2C)c(F)cc(Cl)c1=O` [Example 28.100], the “Pre-emergence action: Avena (rating)” value is 1.
Still for that read-out and setting: then `CCC(=O)Cn1c(-c2nn(C)c(OC(F)F)c2Cl)c(F)cc(Cl)c1=O` [Example 1.302], with 1; and `CCCCn1c(-c2nn(C)c(OC(F)F)c2Cl)c(F)cc(Cl)c1=O` [Example 1.010], with 1.
Still for that read-out and setting: then `Cn1nc(-c2c(F)cc(Cl)c(=O)n2C)c(Cl)c1OC(F)F` [Example 1.002], with 1.

The subject of the next assay is Setaria. Nature of the assay: Pre-emergence herbicidal action (Example B1). Type of assay: in vivo. Set-up: key: 1=total damage; 9=no action; Ratings of from 1 to 4 (especially from 1 to 3) indicate good to very good herbicidal action. As to conditions: 2000 g a.i./ha, sprayed immediately after sowing, evaluated after 3 weeks, scale of nine ratings. The procedure:
as §1, §2
Take `Cn1nc(-c2c(F)cc(Cl)c(=O)n2C)c(Cl)c1C(F)(F)F` [Example 9.002]: the “Pre-emergence action: Setaria (rating)” value is 3.
Same read-out and setting: then `C#CCn1c(-c2nn(C)c(C(F)(F)F)c2Br)c(F)cc(Cl)c1=O` [Example 10.100], with 1; and `C#CCn1c(-c2nn(C)c(S(C)(=O)=O)c2C)c(F)cc(Cl)c1=O` [Example 28.100], with 1.
Still for that read-out and setting: then `CCC(=O)Cn1c(-c2nn(C)c(OC(F)F)c2Cl)c(F)cc(Cl)c1=O` [Example 1.302], with 1; and `CCCCn1c(-c2nn(C)c(OC(F)F)c2Cl)c(F)cc(Cl)c1=O` [Example 1.010], with 1; and `Cn1nc(-c2c(F)cc(Cl)c(=O)n2C)c(Cl)c1OC(F)F` [Example 1.002], with 1.

The subject of a further assay is Sinapis. The experiment in a line: Pre-emergence herbicidal action (Example B1). Set-up: key: 1=total damage; 9=no action; Ratings of from 1 to 4 (especially from 1 to 3) indicate good to very good herbicidal action. As to conditions: 2000 g a.i./ha, sprayed immediately after sowing, evaluated after 3 weeks, scale of nine ratings. It is filed as in vivo. The procedure: as §1, §2
With `Cn1nc(-c2c(F)cc(Cl)c(=O)n2C)c(Cl)c1C(F)(F)F` [Example 9.002], the “Pre-emergence action: Sinapis (rating)” value is recorded as 1.
Same read-out and setting: to `C#CCn1c(-c2nn(C)c(C(F)(F)F)c2Br)c(F)cc(Cl)c1=O` [Example 10.100] belongs 1.
On the same count and under the same terms, to `C#CCn1c(-c2nn(C)c(S(C)(=O)=O)c2C)c(F)cc(Cl)c1=O` [Example 28.100] belongs 1; to `CCC(=O)Cn1c(-c2nn(C)c(OC(F)F)c2Cl)c(F)cc(Cl)c1=O` [Example 1.302], 1.
On the same count and under the same terms, to `CCCCn1c(-c2nn(C)c(OC(F)F)c2Cl)c(F)cc(Cl)c1=O` [Example 1.010] belongs 1; to `Cn1nc(-c2c(F)cc(Cl)c(=O)n2C)c(Cl)c1OC(F)F` [Example 1.002], 1.

Another assay relates to Stellaria. The experiment in a line: Pre-emergence herbicidal action (Example B1). As to conditions: 2000 g a.i./ha, sprayed immediately after sowing, evaluated after 3 weeks, scale of nine ratings. Details: key: 1=total damage; 9=no action; Ratings of from 1 to 4 (especially from 1 to 3) indicate good to very good herbicidal action. Type of assay: in vivo. The procedure: as §1, §2
For `Cn1nc(-c2c(F)cc(Cl)c(=O)n2C)c(Cl)c1C(F)(F)F` [Example 9.002], the “Pre-emergence action: Stellaria (rating)” value amounted to 1.
Still for that read-out and setting: to `C#CCn1c(-c2nn(C)c(C(F)(F)F)c2Br)c(F)cc(Cl)c1=O` [Example 10.100] belongs 1; to `C#CCn1c(-c2nn(C)c(S(C)(=O)=O)c2C)c(F)cc(Cl)c1=O` [Example 28.100], 1.
For `CCC(=O)Cn1c(-c2nn(C)c(OC(F)F)c2Cl)c(F)cc(Cl)c1=O` [Example 1.302], the “Pre-emergence action: Stellaria (rating)” value is on record as 1.
The same measure, in the same setting: to `CCCCn1c(-c2nn(C)c(OC(F)F)c2Cl)c(F)cc(Cl)c1=O` [Example 1.010] belongs 1; to `Cn1nc(-c2c(F)cc(Cl)c(=O)n2C)c(Cl)c1OC(F)F` [Example 1.002], 1.

Another assay concerns Avena. Nature of the assay: Post-emergence herbicidal action (Example B2). It is filed as in vivo. Details: key: 1=total damage; 9=no action; Ratings of from 1 to 4 (especially from 1 to 3) indicate good to very good herbicidal action. The settings on record: 2000 g a.i./ha, sprayed at 4- to 6-leaf stage, evaluated after approximately 18 days, scale of nine ratings. The procedure: (§3) Monocotyledonous and dicotyledonous test plants are grown in a greenhouse in plastics pots containing standard soil and at the 4- to 6-leaf stage are sprayed with an aqueous suspension or emulsion of the test substances of formula I, prepared from a 25% emulsifiable concentrate (Example F1, c) in WO 97/34485, pages 9 and 10), at a rate of application corresponding to 2000 g of active ingredient/ha (500 liters water/ha). The test plants are then grown on in the greenhouse under optimum conditions. After approximately 18 days' test duration, the test is evaluated in accordance with a scale of nine ratings (1=total damage, 9=no action). Ratings of from 1 to 4 (especially from 1 to 3) indicate good to very good herbicidal action.
as §2
As for `Cn1nc(-c2c(F)cc(Cl)c(=O)n2C)c(Cl)c1C(F)(F)F` [Example 9.002], the “Post-emergence action: Avena (rating)” value came to 1.
Take `C#CCn1c(-c2nn(C)c(C(F)(F)F)c2Br)c(F)cc(Cl)c1=O` [Example 10.100]: the “Post-emergence action: Avena (rating)” value is 1.
Same read-out and setting: to `C#CCn1c(-c2nn(C)c(S(C)(=O)=O)c2C)c(F)cc(Cl)c1=O` [Example 28.100] belongs 1.
Still for that read-out and setting: then `CCC(=O)Cn1c(-c2nn(C)c(OC(F)F)c2Cl)c(F)cc(Cl)c1=O` [Example 1.302], with 1.
Still for that read-out and setting: to `CCCCn1c(-c2nn(C)c(OC(F)F)c2Cl)c(F)cc(Cl)c1=O` [Example 1.010] belongs 1; to `Cn1nc(-c2c(F)cc(Cl)c(=O)n2C)c(Cl)c1OC(F)F` [Example 1.002], 1.

The next assay has as its system Setaria. Nature of the assay: Post-emergence herbicidal action (Example B2). Type of assay: in vivo. Set-up: key: 1=total damage; 9=no action; Ratings of from 1 to 4 (especially from 1 to 3) indicate good to very good herbicidal action. As to conditions: 2000 g a.i./ha, sprayed at 4- to 6-leaf stage, evaluated after approximately 18 days, scale of nine ratings. On the procedure: as §3, §2
For the compound `Cn1nc(-c2c(F)cc(Cl)c(=O)n2C)c(Cl)c1C(F)(F)F` [Example 9.002], the “Post-emergence action: Setaria (rating)” value is recorded as 3.
On to `C#CCn1c(-c2nn(C)c(C(F)(F)F)c2Br)c(F)cc(Cl)c1=O` [Example 10.100], for which the “Post-emergence action: Setaria (rating)” value came out at 2.
On the same count and under the same terms, to `C#CCn1c(-c2nn(C)c(S(C)(=O)=O)c2C)c(F)cc(Cl)c1=O` [Example 28.100] belongs 1.
The same measure, in the same setting: to `CCC(=O)Cn1c(-c2nn(C)c(OC(F)F)c2Cl)c(F)cc(Cl)c1=O` [Example 1.302] belongs 1; to `CCCCn1c(-c2nn(C)c(OC(F)F)c2Cl)c(F)cc(Cl)c1=O` [Example 1.010], 1; to `Cn1nc(-c2c(F)cc(Cl)c(=O)n2C)c(Cl)c1OC(F)F` [Example 1.002], 1.

A further assay relates to Sinapis. The experiment in a line: Post-emergence herbicidal action (Example B2). Type of assay: in vivo. Details: key: 1=total damage; 9=no action; Ratings of from 1 to 4 (especially from 1 to 3) indicate good to very good herbicidal action. The settings on record: 2000 g a.i./ha, sprayed at 4- to 6-leaf stage, evaluated after approximately 18 days, scale of nine ratings. On the procedure:
as §3, §2
For `Cn1nc(-c2c(F)cc(Cl)c(=O)n2C)c(Cl)c1C(F)(F)F` [Example 9.002], the “Post-emergence action: Sinapis (rating)” value was 1.
The same measure, in the same setting: then `C#CCn1c(-c2nn(C)c(C(F)(F)F)c2Br)c(F)cc(Cl)c1=O` [Example 10.100], with 1; and `C#CCn1c(-c2nn(C)c(S(C)(=O)=O)c2C)c(F)cc(Cl)c1=O` [Example 28.100], with 1; and `CCC(=O)Cn1c(-c2nn(C)c(OC(F)F)c2Cl)c(F)cc(Cl)c1=O` [Example 1.302], with 1.
Still for that read-out and setting: to `CCCCn1c(-c2nn(C)c(OC(F)F)c2Cl)c(F)cc(Cl)c1=O` [Example 1.010] belongs 1; to `Cn1nc(-c2c(F)cc(Cl)c(=O)n2C)c(Cl)c1OC(F)F` [Example 1.002], 1.

Another assay has as its system Stellaria. The experiment in a line: Post-emergence herbicidal action (Example B2). It is filed as in vivo. Details: key: 1=total damage; 9=no action; Ratings of from 1 to 4 (especially from 1 to 3) indicate good to very good herbicidal action. The settings on record: 2000 g a.i./ha, sprayed at 4- to 6-leaf stage, evaluated after approximately 18 days, scale of nine ratings. On the procedure: as §3, §2
In the case of `Cn1nc(-c2c(F)cc(Cl)c(=O)n2C)c(Cl)c1C(F)(F)F` [Example 9.002], the “Post-emergence action: Stellaria (rating)” value is on record as 1.
The same measure, in the same setting: to `C#CCn1c(-c2nn(C)c(C(F)(F)F)c2Br)c(F)cc(Cl)c1=O` [Example 10.100] belongs 1; to `C#CCn1c(-c2nn(C)c(S(C)(=O)=O)c2C)c(F)cc(Cl)c1=O` [Example 28.100], 1; to `CCC(=O)Cn1c(-c2nn(C)c(OC(F)F)c2Cl)c(F)cc(Cl)c1=O` [Example 1.302], 1.
Regarding `CCCCn1c(-c2nn(C)c(OC(F)F)c2Cl)c(F)cc(Cl)c1=O` [Example 1.010], the “Post-emergence action: Stellaria (rating)” value was 1.
Turning to `Cn1nc(-c2c(F)cc(Cl)c(=O)n2C)c(Cl)c1OC(F)F` [Example 1.002], the “Post-emergence action: Stellaria (rating)” value worked out at 1.
